Source: patent US20020065314A1, “COMPOSITIONS AND METHOD FOR STIMULATING HAIR GROWTH” (priority 1995, published 2002)
Read-outs that look alike come from different tables or passages of the source. Values belong to the compound of their own block, whether it stands above or below them.

Legend:
C57BL/KsJ db/+ mice = tested on: C57BL/KsJ db/+ mice
Description: The induction of hair loss following treatment with certain anticancer drugs, such as cyclophosphamide or doxorubicin, is well documented (A. Tierney & J. Taylor (1991) Nurs. Stand 5:29-31; R. R. Love, et al. (1989) Cancer 63:604-612; B. W. Cline (1984) Cancer Nurs. 7:221-228). The following experiment was performed to determine the effect of n-butyl cyanoacrylate on hair regrowth in mice pre-treated with cyclophosphamide or doxorubicin. Twenty mice of strain C57BL/KsJ db/+ were peritoneally injected with either cyclophosphamide in PBS (20 mg per kilogram of body weight) or Doxorubicin in PBS (2 mg per kilogram of body weight) for 10 consecutive days. Then a single 10 μl dose of n-butyl cyanoacrylate was applied topically to an area of the shaved dorsum of each animal. Control mice, which were injected with PBS alone, were treated similarly. The effects of hair regrowth were determined both by phototrichogram (macroscopic observation using photography) and by folliculogram (microscopic observation of histological changes in the treated and untreated skin).

[1] = tested on: C57BL/KsJ db/+ and C57BL/KsJ db/db mice; assay: Effect of isobutyl cyanoacrylate on hair growth, topical; format: in vivo, mouse; settings: for Hair growth: 10 μl cm^−2 topical
Description: The following experiment was performed to identify the effect of isobutyl cyanoacrylate, a structural analog of n-butyl cyanoacrylate, on hair growth. The shaved backs of C57BL/KsJ db/+ and C57BL/KsJ db/db mice were treated topically at a dose of 10 μl cm^−2 with either isobutyl cyanoacrylate (Sigma Chemical Co., St Louis, Mo.) or n-butyl cyanoacrylate.

[2] = tested on: C57BL/KsJ db/+ and C57BL/KsJ db/db mice; assay: Effect of isobutyl cyanoacrylate on hair growth, topical; format: in vivo, mouse
hair growth = assay: Hair growth stimulation by comparison agents; settings: in vivo

SMILES: O=P1(N(CCCl)CCCl)NCCCO1 (stereo not shown) [cyclophosphamide, reference compound]
pigmentation of new hair and skin in pre-treated animals (C57BL/KsJ db/+ mice; pre-treatment with the anticancer drug, then topical n-butyl cyanoacrylate): lack of pigmentation in the new growth hairs

pigmentation of new hair and skin in pre-treated animals (C57BL/KsJ db/+ mice; mouse, in vivo): normal pigmentation
SMILES: COc1cccc2c1C(=O)c1c(O)c3c(c(O)c1C2=O)C[C@@](O)(C(=O)CO)C[C@@H]3O[C@H]1C[C@H](N)[C@H](O)[C@H](C)O1 [doxorubicin, reference compound]

SMILES: C=C(C#N)C(=O)OCC(C)C [isobutyl cyanoacrylate]
Hair growth ([1]; C57BL/KsJ db/+): 3+ (high hair regeneration with an area larger than 50% of the treated area)
Hair growth ([1]; C57BL/KsJ db/db): 3+ (high hair regeneration with an area larger than 50% of the treated area)
hair growth response compared with that of n-butyl cyanoacrylate ([1]; both strains): nearly identical
time at which hair growth was visible ([1]; both strains, post treatment): 8 to 12 days
time at which hair reached full length ([1]; both strains, post treatment): 15 to 18 days
time at which many new hair follicles occurred in treated area ([1]; both strains, post treatment): 2 to 3 days
response compared with hair growth induced by n-butyl cyanoacrylate (mice and rats; mice and rats): very similar
hair growth in normal intact skin, in skin of animals pre-treated with anticancer drugs, and at edges of wounds (mice and rats; two species (rat and mouse), seven strains of mouse): stimulate hair growth
hair growth on dorsum (photograph) ([2]; C57BL/KsJ +/+ mouse, 19 days post application): “T” pattern of hair growth
hair growth response to formulation with about 0.01% monomethyl hydroquinone ([2]; several strains of mice): positive response

SMILES: CCCCOC(=O)CCCCCCCCC(=O)OCCCC [sebacic acid dibutyl ester]
stimulation of hair growth (hair growth): not effective in stimulating hair growth
